Source: patent US9765018B2, “IDO inhibitors” (BRISTOL-MYERS SQUIBB COMPANY, priority 2013, dated 2017)

How the values were obtained:
[1] = molecular target: T1, IDO (Homo sapiens (Human), UniProt P14902); test: LLE_IDO_ABS_DR (IDO assay, method not described)
[2] = molecular target: T1, IDO; test: Kynurenine assay in IFN-γ-stimulated Hela cells; format: cell-based; conditions: 20 h, read-out: Hela Kyurenine (IC50)
Summary of the method: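 Kynurenine in supernatant is read at 490 nm after Ehrlich reagent (10 min RT), following TCA stop and 30 min at 50° C hydrolysis. Before that, Hela cells in phenol red-free RPMI/10% FBS were co-treated 20 h at 37° C with 100 ng/mL IFN-γ and compound (30 μM top, 3-fold series to 1.5 nM).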

T1 sequence (P14902 whole entry): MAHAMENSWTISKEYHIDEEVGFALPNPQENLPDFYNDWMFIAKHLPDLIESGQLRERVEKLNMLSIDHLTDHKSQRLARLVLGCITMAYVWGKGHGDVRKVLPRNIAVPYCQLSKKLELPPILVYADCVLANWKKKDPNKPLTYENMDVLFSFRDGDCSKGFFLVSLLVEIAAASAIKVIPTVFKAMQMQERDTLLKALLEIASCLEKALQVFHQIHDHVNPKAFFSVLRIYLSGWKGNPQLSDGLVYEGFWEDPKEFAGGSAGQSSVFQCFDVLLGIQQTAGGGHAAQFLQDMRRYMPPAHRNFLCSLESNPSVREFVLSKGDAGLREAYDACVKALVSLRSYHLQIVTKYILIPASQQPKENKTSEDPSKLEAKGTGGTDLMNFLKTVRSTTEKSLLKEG

| IC50 [1] | IC50 [2] | Molecule |
| --- | --- | --- |
| 130 nM |  | O=C(Nc1ccc(C2CC2)cc1)Nc1cc(-c2ccccc2-c2nnn[nH]2)cc(CC2CC2)c1OC1CCOCC1 [Example 328] |
| 100 nM |  | CCCCC(Oc1ccc(-c2ccccc2-c2nnn[nH]2)cc1NC(=O)Nc1ccc(C)cc1)C1CCCCC1 (stereo not shown) [Example 272] |
| 100 nM |  | Cc1ccc(NC(=O)Nc2cc(-c3cc(F)ccc3C(=O)O)cc(C/C=C/C(F)(F)F)c2OCCC(F)(F)F)cc1 [Example 302] |
| 600 nM |  | CCCC(CCC)Oc1ccc(-c2ccccc2C(=O)O)cc1NC(=O)Nc1ccc(C)cc1 [Example 14, 4′-(Heptan-4-yloxy)-3′-(3-(p-tolyl)ureido)-[1,1′-biphenyl]-2-carboxylic acid] |
| 1860 nM |  | CC(C)(C)c1ccccc1Oc1ccc(-c2ccc(F)cc2-c2nnn[nH]2)cc1NC(=O)Nc1ccccc1Cl [Example 195, 1-(4-(2-tert-butylphenoxy)-4′-fluoro-2′-(1H-tetrazol-5-yl)biphenyl-3-yl)-3-(2-chlorophenyl)urea] |
| 2970 nM |  | Cc1cccc(NC(=O)Nc2cc(-c3ccccc3-c3nnn[nH]3)cc(CC3CC3)c2OCC2CC2)c1 [Example 325] |
| 90 nM |  | Cc1ccc(NC(=O)Nc2cc(-c3cc(F)ccc3C(=O)O)ccc2OC(CCC(F)(F)F)c2ccccc2)cc1 (stereo not shown) [Example 309] |
| 470 nM |  | CCCC(CCC)Oc1c(Br)cc(-c2ccccc2-c2nnn[nH]2)cc1NC(=O)Nc1ccc(C)cc1 [Example 286] |
| 100 nM |  | CCCOc1c(C/C=C/c2ccccc2)cc(-c2ccccc2C(=O)O)cc1NC(=O)Nc1ccc(C)cc1 [Example 35, 3′-Cinnamyl-4′-propoxy-5′-(3-p-tolylureido)biphenyl-2-carboxylic acid] |
| 130 nM |  | CCCOc1c(CCCc2ccccc2)cc(-c2ccccc2-c2nnn[nH]2)cc1NC(=O)Nc1ccc(C)cc1 [Example 37, 1-(5-(3-Phenylpropyl)-4-propoxy-2′-(1H-tetrazol-5-yl)biphenyl-3-yl)-3-p-tolylurea] |
| 140 nM |  | CC/C=C/Cc1cc(-c2ccccc2-c2nnn[nH]2)cc(NC(=O)Nc2ccc(C)cc2)c1OCCC [Example 285] |
| 310 nM |  | O=C(Nc1ccc(Cl)cc1)Nc1cc(-c2ccccc2-c2nnn[nH]2)cc(CC2CC2)c1OCC1CC1 [Example 327] |
| 200 nM |  | CCCOc1c(CCC)cc(-c2ccccc2C(=O)O)cc1NC(=O)Nc1ccc(C)cc1 [Example 17, 4′-Propoxy-3′-propyl-5′-(3-(p-tolyl)ureido)-[1,1′-biphenyl]-2-carboxylic acid] |
| 220 nM |  | O=C(Nc1ccc(OC(F)(F)F)cc1)Nc1cc(-c2ccccc2-c2nnn[nH]2)cc(CC2CC2)c1Oc1ccccc1 [Example 320] |
| 2150 nM |  | CC(C)(C)c1ccccc1Oc1ccc(-c2cncc(C(=O)O)c2)cc1NC(=O)Nc1ccc(OC(F)(F)F)cc1 [Example 266, 5-(4-(2-tert-butylphenoxy)-3-(3-(4-(trifluoromethoxy)phenyl)ureido)phenyl)nicotinic acid] |
| 80 nM |  | Cc1ccc(NC(=O)Nc2cc(-c3ccccc3-c3nnn[nH]3)ccc2OC(CCC(F)(F)F)c2ccc(Cl)cc2)cc1 (stereo not shown) [Example 312] |
| 130 nM |  | Cc1cccc(NC(=O)Nc2cc(-c3ccccc3-c3nnn[nH]3)cc(CC3CC3)c2OC2CCOCC2)c1 [Example 326] |
| 310 nM |  | CCCOc1c(CCC)cc(-c2cc(F)ccc2C(=O)O)cc1NC(=O)Nc1ccc(C)cc1 [Example 18, 5-Fluoro-4′-propoxy-3′-propyl-5′-(3-(p-tolyl)ureido)-[1,1′-biphenyl]-2-carboxylic acid] |
| 380 nM |  | CCCC(CCC)Oc1ccc(-c2cc(F)ccc2C(=O)O)cc1NC(=O)Nc1ccc(C)cc1 [Example 15, 5-Fluoro-4′-(heptan-4-yloxy)-3′-(3-(p-tolyl)ureido)-[1,1′-biphenyl]-2-carboxylic acid] |
| 1740 nM |  | CCC[C@H](Oc1ccc(-c2cc(F)ccc2C(=O)O)cc1NC(=O)Nc1ccc(C)cc1)c1ccccc1 [Example 275] |
| 820 nM |  | O=C(Nc1ccccc1F)Nc1cc(-c2cc(F)ccc2C(=O)O)cc(/C=C/C=C(F)F)c1OCCC(F)(F)F [Example 281] |
| 110 nM |  | CCCOc1c(/C=C/C=C(F)F)cc(-c2cc(F)ccc2C(=O)O)cc1NC(=O)Nc1ccc(C)cc1 [Example 33, (E)-3′-(4,4-Difluorobuta-1,3-dien-1-yl)-5-fluoro-4′-propoxy-5′-(3-(p-tolyl)ureido)-[1,1′-biphenyl]-2-carboxylic acid] |
| 1490 nM |  | C=CC(c1ccccc1)c1cc(-c2ccccc2-c2nnn[nH]2)cc(NC(=O)Nc2ccc(C)cc2)c1OCCC(F)(F)F (stereo not shown) [Example 290] |
| 330 nM |  | Cc1ccc(NC(=O)Nc2cc(-c3ccccc3-c3nnn[nH]3)cc(CC3CC3)c2OCCC(F)(F)F)cc1 [Example 317] |

| IC50 [1] | IC50 [2] | Molecule |
| --- | --- | --- |
| 80 nM |  | CCCCc1cc(-c2cc(F)ccc2C(=O)O)cc(NC(=O)Nc2ccc(C)cc2)c1OCCC [Example 24] |
| 850 nM |  | C/C=C/Cc1cc(-c2cc(F)ccc2C(=O)O)cc(NC(=O)Nc2ccc(C)cc2)c1OCc1ccccc1 [Example 27, (E)-4′-(Benzyloxy)-3′-(but-2-en-1-yl)-5-fluoro-5′-(3-(p-tolyl)ureido)-[1,1′-biphenyl]-2-carboxylic acid] |
| 320 nM |  | O=C(Nc1ccc(F)cc1F)Nc1cc(-c2ccccc2-c2nnn[nH]2)cc(CC2CC2)c1OCCC(F)(F)F [Example 318] |
| 650 nM |  | C/C=C/Cc1cc(-c2ccccc2C(=O)O)cc(NC(=O)Nc2ccc(C)cc2)c1OCc1ccccc1 [Example 26, (E)-4′-(Benzyloxy)-3′-(but-2-en-1-yl)-5′-(3-(p-tolyl)ureido)-[1,1′-biphenyl]-2-carboxylic acid] |
| 5450 nM |  | CCCC(Oc1ccc(-c2cc(F)ccc2C(=O)O)cc1NC(=O)Nc1ccc(C)cc1)c1ccccc1Cl (stereo not shown) [Example 306] |
| 30 nM |  | O=C(Nc1ccc(F)cc1F)Nc1cc(-c2ccccc2-c2nnn[nH]2)cc(CC2CC2)c1OCC1CC1 [Example 277] |
| 1720 nM |  | Cc1ccc(NC(=O)Nc2cc(-c3ccccc3-c3nnn[nH]3)ccc2OC(CCC(F)(F)F)c2ccccc2)cc1 (stereo not shown) [Example 310] |
| 250 nM |  | Cc1ccc(NC(=O)Nc2cc(-c3ccccc3-c3nnn[nH]3)ccc2OCc2ccccc2)cc1 [Example 28, 1-(4-(Benzyloxy)-2′-(1H-tetrazol-5-yl)-[1,1′-biphenyl]-3-yl)-3-(p-tolyl)urea] |
| 130 nM |  | CCCCc1cc(-c2ccccc2C(=O)O)cc(NC(=O)Nc2ccc(C)cc2)c1OCCC [Example 23, 3′-Butyl-4′-propoxy-5′-(3-(p-tolyl)ureido)-[1,1′-biphenyl]-2-carboxylic acid] |
| 160 nM |  | Cc1ccc(NC(=O)Nc2cc(-c3ccccc3C(=O)O)cc(C/C=C/C(F)(F)F)c2OCCC(F)(F)F)cc1 [Example 303] |
| 40 nM |  | Cc1ccc(NC(=O)Nc2cc(-c3cc(F)ccc3C(=O)O)ccc2OC(CCN2CCOCC2)c2ccccc2)cc1 (stereo not shown) [Example 307] |
| 3510 nM |  | CCC[C@H](Oc1ccc(-c2ccccc2-c2nnn[nH]2)cc1NC(=O)Nc1ccc(C)cc1)c1ccccc1 [Example 274] |
| 80 nM |  | Cc1cccc(NC(=O)Nc2cc(-c3ccccc3-c3nnn[nH]3)cc(CC3CC3)c2OCCC(F)(F)F)c1 [Example 315] |
| 130 nM |  | CCCCc1cc(-c2cc(F)ccc2C(=O)O)cc(NC(=O)Nc2ccc(C)cc2)c1OCc1ccccc1 [Example 40, 4′-(Benzyloxy)-3′-butyl-5-fluoro-5′-(3-p-tolylureido)biphenyl-2-carboxylic acid] |
| 20 nM |  | CCC[C@@H](Oc1ccc(-c2cc(F)ccc2C(=O)O)cc1NC(=O)Nc1ccc(C)cc1)c1ccccc1 [Example 270] |
| 520 nM |  | Cc1ccc(NC(=O)Nc2cc(-c3ccccc3C(=O)O)ccc2OCc2ccccc2)cc1 [Example 294] |
|  | 720 nM | CC(C)(C)c1ccccc1Oc1ccc(-c2cccc(C(=O)O)c2)cc1NC(=O)Nc1cccc(Cl)c1 [Example 231, 4′-(2-tert-butylphenoxy)-3′-(3-(3-chlorophenyl)ureido)biphenyl-3-carboxylic acid] |
|  | 830 nM | COc1ccc(-c2ccc(Oc3ccccc3Cl)c(NC(=O)Nc3ccc(C)cc3)c2)cc1C(=O)O [Example 51, 4′-(2-chlorophenoxy)-4-methoxy-3′-(3-p-tolylureido)biphenyl-3-carboxylic acid] |
|  | 1320 nM | Cc1cccc(NC(=O)Nc2cc(-c3ccc(Cl)cc3C(=O)O)ccc2Oc2ccccc2C(C)(C)C)c1 [Example 160, 4′-(2-tert-butylphenoxy)-4-chloro-3′-(3-m-tolylureido)biphenyl-2-carboxylic acid] |
|  | 850 nM | Cc1ccc(NC(=O)Nc2cc(-c3ccc(C(=O)O)c(Cl)c3)ccc2Oc2ccccc2C(F)(F)F)cc1 [Example 205, 3-chloro-3′-(3-p-tolylureido)-4′-(2-(trifluoromethyl)phenoxy)biphenyl-4-carboxylic acid] |
|  | 110 nM | CCc1ccccc1Oc1ccc(-c2ccc(OC)c(C(=O)O)c2)cc1NC(=O)Nc1ccccc1Cl [Example 55, 3′-(3-(2-chlorophenyl)ureido)-4′-(2-ethylphenoxy)-4-methoxybiphenyl-3-carboxylic acid] |
|  | 2250 nM | COc1cc(-c2ccc(Oc3ccccc3C(C)(C)C)c(NC(=O)Nc3ccc(C)cc3)c2)ccc1C(=O)O [Example 258, 4′-(2-tert-butylphenoxy)-3-methoxy-3′-(3-p-tolylureido) biphenyl-4-carboxylic acid] |
|  | 580 nM | CCc1ccc(NC(=O)Nc2cc(-c3ccc(OC)c(C(=O)O)c3)ccc2Oc2ccccc2C(C)(C)C)cc1 [Example 67, 4′-(2-tert-butylphenoxy)-3′-(3-(4-ethylphenyl)ureido)-4-methoxybiphenyl-3-carboxylic acid] |

| Molecule | IC50 [1] | IC50 [2] |
| --- | --- | --- |
| Cc1ccc(NC(=O)Nc2cc(-c3cc(F)ccc3C(=O)O)ccc2OC(CCC(F)(F)F)c2ccccc2Cl)cc1 (stereo not shown) [Example 267, 4′-(1-(2-Chlorophenyl)-4,4,4-trifluorobutoxy)-5-fluoro-3′-(3-(p-tolyl)ureido)-[1,1′-biphenyl]-2-carboxylic acid] | 390 nM |  |
| 4′-(2-(tert-butyl)phenoxy)-3′-(3-(4-fluorophenyl)ureido)-4-methoxy-[1,1′-biphenyl]-3-carboxylic acid [Example 107] |  | 320 nM |
